The numbers were not newly measured in US4178376A, “Method for inducing rapid therapeutically effective antimalarial levels of certain selected conventional antimalarials” (Interx Research Corporation, priority 1977, dated 1979), which cites them from elsewhere.

The conditions of the data set: water.

`CCCCN(CCCC)CCC(O)c1cc(-c2ccc(C(F)(F)F)cc2)nc(-c2ccc(C(F)(F)F)cc2)c1` (centres unmarked) [3-Dibutylamino-1-[2,6-bis(4-trifluoromethylphenyl)-4-pyridyl] propanol]: the aqueous solubility entry is “approximately 7.0 mg per liter of water”.

Take `CCCCN(CCCC)CC(O)c1cc(-c2ccc(Cl)c(Cl)c2)nc2c(Cl)cc(Cl)cc12` (centres unmarked) [Compound I]: the aqueous solubility entry is “approximately 1.0 mg per liter of water”.
